Measurements as given in paper PMC7059199, “Identification and structural insight of an effective PPARγ modulator with improved therapeutic index for anti-diabetic drug discovery” (Chemical Science, 2020).

Columns and labels:
HFD mice = test: Anti-diabetic activity and side effects in HFD mice, 7 weeks; settings: for expression of Glut4 and Adiponectin in adipose tissue (mRNA) / expression of adipogenic genes PPARγ, AP2, CD36, LPL, C/EBPa and Fasn in adipose tissue (mRNA): (S)-VSP-77 5 mg/kg i.p.
Method: HFD mice were injected with (S)- or (R)-VSP-77 for 7 weeks.
Laboratory Animal Co., Shanghai, China) were housed in a temperature-controlled
For chronic treatment, mice were fed high-fat diets (60% calories from fat; Research Diets, New Brunswick, NJ, USA) or standard diets ad libitum. At 14 weeks of age, mice were randomly assigned to
(5 mg/day/kg or 10 mg/kg/day), VSP-77 (5 mg/kg/day) and (S)- or (R)-VSP-77 (5 mg/kg/day) were intraperitoneally injected and INT131 (30 mg/kg/day) was orally treated. The glucose tolerance test (2 g/kg glucose i.p.) and determination of fasting blood glucose and insulin levels were performed after 6 h of starvation. At the end, the animals were anatomized and blood and tissues were collected for further

GST-PPARγ LBD = target: T1, GST-PPARγ LBD (Homo sapiens, UniProt P37231); test: LanthaScreen TR-FRET competitive binding assay, PPARγ; settings: competition of Fluormone (5 nM); 0.5 nM GST-PPARγ LBD
T1 construct: 0.5 nM GST-PPARγ LBD was incubated with 5 nM Fluormone™; purchased Invitrogen
T1 sequence (P37231 238-503 limits assumed): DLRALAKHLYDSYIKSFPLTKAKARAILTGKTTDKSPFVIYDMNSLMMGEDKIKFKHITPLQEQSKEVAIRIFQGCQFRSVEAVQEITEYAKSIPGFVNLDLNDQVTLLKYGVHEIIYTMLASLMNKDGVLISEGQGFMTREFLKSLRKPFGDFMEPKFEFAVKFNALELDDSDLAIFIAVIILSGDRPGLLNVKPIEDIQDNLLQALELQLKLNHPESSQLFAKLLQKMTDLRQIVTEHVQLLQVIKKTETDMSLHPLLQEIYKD
Method: LanthaScreen™ TR-FRET assay (Invitrogen) was used for measuring the binding affinities of the ligands. 0.5 nM GST-PPARγ LBD was incubated with 5 nM Fluormone™ and Terbium-coated GST antibody.
Competitive TR -FRET binding assay
The GST PPARγ -LBD was labeled with a terbium-linked antibody and a fluorescent small molecule pan-PPAR ligand (Fluormone™ Pan-PPAR Green, Invitrogen) was used as a tracer that is displaced from the ligand binding domain upon agonist binding.
Excitation of the terbium at 340 nm results in FRET to the fluorescent tracer, with
Tracer displacment results is a loss of FRET signal between the terbium label and the fluorescent tracer.
The inhibition constant (ki) for a competitor was calculated by applying the
Cheng-Prusoff equation as following:
the tracer, [tracer] is the concentration of Fluormone™ Pan-PPAR Green used in the

PPARα = target: T2, PPARα (Homo sapiens, UniProt Q07869); test: Competitive TR-FRET assay, PPARα; settings: at 10 μM
T2 sequence (Q07869 1-468): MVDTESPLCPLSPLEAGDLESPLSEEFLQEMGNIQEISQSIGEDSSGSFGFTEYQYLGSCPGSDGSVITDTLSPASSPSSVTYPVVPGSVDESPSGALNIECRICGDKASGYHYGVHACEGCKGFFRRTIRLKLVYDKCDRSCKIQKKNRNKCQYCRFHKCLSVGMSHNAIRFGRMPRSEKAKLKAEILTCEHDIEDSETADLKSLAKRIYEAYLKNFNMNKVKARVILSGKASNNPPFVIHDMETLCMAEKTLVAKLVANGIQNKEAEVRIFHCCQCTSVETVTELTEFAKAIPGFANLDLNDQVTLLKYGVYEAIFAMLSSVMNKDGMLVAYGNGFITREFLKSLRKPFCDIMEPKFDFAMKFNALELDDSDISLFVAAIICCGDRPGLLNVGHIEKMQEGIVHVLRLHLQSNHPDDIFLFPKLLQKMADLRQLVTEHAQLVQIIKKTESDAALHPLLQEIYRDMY

3T3-L1 cells [1] = test: 3T3-L1 adipocyte differentiation assay (Oil Red O staining); type: cell-based, mouse; settings: Rosi 10 μM; 2 days
Method: One of the best documented side-effects of the PPARγ agonist drugs is weight gain as PPARγ is the key activator of adipogenesis. To determine whether VSP-77 promotes adipogenesis, we treated mouse fibroblast 3T3-L1 cells with 100 μM of VSP-77. […] Cells were incubated with Oil Red O, which stains adipocytes red.
Fig. 6 3T3-L1 adipocyte differentiation assay. Oil Red O staining of 3T3-L1 fibroblast cells after differentiating with different ligands for 2 days. […]
Adipocyte differentiation assay
The adipocyte differentiation assay was performed with NIH 3T3-L1 preadipocytes obtained from ATCC. The 3T3-L1 preadipocytes were maintained in DMEM containing 10% FBS and antibiotics. For differentiation DMI (Dexamethazone 1 μM, 3-isobutyl-1-methyxanthine (IBMX) 0.5 mM and Insulin167 nM) and 10 μM of rosiglitazone were used as positive controls for the assay. VSP-77 was used at a 100 μM concentration. All the treatments have insulin at 167 nM concentration. Media with DMSO was used as a negative control. Differentiation was induced by treating post-confluent cultures with media containing the respective ligands for two days.
Cells were stained with Oil Red O to estimate the lipid accumulation. The images were analyzed using ImageJ (National Institutes of Health). […]

3T3-L1 cells [2] = test: qPCR of adipogenic genes in 3T3-L1 cells; type: cell-based, mouse; settings: 7 days after treatment
Method: Encouraged by the above results and to further determine whether VSP-77 activates PPARγ in 3T3-L1 cells, we evaluated the ability of VSP-77 to stimulate PPARγ activity by measuring the mRNA levels of endogenous PPARγ-regulated downstream genes linked to adipogenesis (primers are listed in Table S1 ^†).
Fig. 7 Expression of adipogenic genes in 3T3-L1 cells was analyzed by quantitative PCR (qPCR). Relative mRNA levels of the adipocyte differentiation genes PPARγ, aP2, CD36, LPL, C/EBPα and Fasn. mRNA was extracted from differentiating cells 7 days after treatment (n = 3, error bars = SEM). […]
(average±standard deviation calculated from three separate experiments). […]
Cells were stained with Oil Red O to estimate the lipid accumulation. The images were analyzed using ImageJ (National Institutes of Health).
For real-time PCR analysis, 1-2 μg total RNA was reverse-transcribed using the SuperScript cDNA Reverse Transcription Kit (Invitrogen) with SYBR Green PCR Master Mix (Invitrogen) and gene specific primers (Table S1) using a Roche Light Cycler 480 machine. The relative expression of mRNA was determined after normalization to β-actin level using the ΔΔ-Ct method. […]

[3] = target: hERG potassium ion channel (Homo sapiens, UniProt Q12809); design: method as in PMID 23054723; settings: read-out: hERG inhibition IC50; cited from earlier work
Sequence of hERG potassium ion channel (Q12809 whole entry): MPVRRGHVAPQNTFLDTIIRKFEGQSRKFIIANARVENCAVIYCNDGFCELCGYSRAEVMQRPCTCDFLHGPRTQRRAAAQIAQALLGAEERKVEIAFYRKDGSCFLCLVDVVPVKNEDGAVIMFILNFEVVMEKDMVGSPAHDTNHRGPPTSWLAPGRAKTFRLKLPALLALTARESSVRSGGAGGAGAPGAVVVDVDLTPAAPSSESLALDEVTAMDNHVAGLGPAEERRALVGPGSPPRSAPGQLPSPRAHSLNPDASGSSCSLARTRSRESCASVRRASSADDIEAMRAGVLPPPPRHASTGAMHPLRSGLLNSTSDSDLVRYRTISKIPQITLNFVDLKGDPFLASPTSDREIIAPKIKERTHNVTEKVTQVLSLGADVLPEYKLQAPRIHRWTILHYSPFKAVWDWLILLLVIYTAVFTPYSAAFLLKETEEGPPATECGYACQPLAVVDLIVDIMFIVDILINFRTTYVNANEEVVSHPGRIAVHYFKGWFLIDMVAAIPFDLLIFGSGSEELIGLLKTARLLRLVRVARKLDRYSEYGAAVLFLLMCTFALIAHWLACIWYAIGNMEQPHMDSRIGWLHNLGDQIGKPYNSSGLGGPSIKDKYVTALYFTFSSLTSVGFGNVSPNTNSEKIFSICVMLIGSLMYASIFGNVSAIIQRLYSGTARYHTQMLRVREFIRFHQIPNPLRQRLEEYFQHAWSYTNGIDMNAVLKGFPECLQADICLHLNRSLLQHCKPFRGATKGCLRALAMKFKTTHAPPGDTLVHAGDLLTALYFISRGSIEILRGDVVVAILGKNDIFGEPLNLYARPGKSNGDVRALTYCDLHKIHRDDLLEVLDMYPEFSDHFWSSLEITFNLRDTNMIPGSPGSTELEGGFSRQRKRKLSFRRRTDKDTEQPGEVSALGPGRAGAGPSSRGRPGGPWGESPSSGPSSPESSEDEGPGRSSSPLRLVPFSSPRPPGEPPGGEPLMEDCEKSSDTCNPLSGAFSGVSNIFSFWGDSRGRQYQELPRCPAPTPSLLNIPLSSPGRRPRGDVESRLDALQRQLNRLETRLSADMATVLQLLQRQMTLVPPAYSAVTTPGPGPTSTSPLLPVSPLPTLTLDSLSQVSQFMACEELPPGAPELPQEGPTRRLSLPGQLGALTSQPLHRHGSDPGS

Question: What does the source list for `CCCCCCC[C@H](OCC(=O)O)c1ccc(Cl)cc1` [(S)-VSP-77]?
Answer: CDK5-mediated Ser-273 phosphorylation of PPARγ in white adipose tissue (HFD mice; 5 mg/kg i.p.): effectively blocked; fasting glucose levels (HFD mice; 5 mg/kg i.p.): significant reduction; fasting insulin levels (HFD mice; 5 mg/kg i.p.): significant reduction; fluid retention (HFD mice; 5 mg/kg i.p.): does not promote; expression of Glut4 and Adiponectin in adipose tissue (mRNA) (HFD mice; Rosi 10 mg/kg i.p.): increased; expression of adipogenic genes PPARγ, AP2, CD36, LPL, C/EBPa and Fasn in adipose tissue (mRNA) (HFD mice; Rosi 10 mg/kg i.p.): weakly induced

Question: For `CCCCCCCCCC(=O)O` [DA, decanoic acid, reference compound], which Ki (GST-PPARγ LBD) is on record?
Answer: Its Ki is 50.5 µM.

Question: Which “binding capability for PPARα” value (PPARα) does the source give for `CC(C)(Sc1ccc(CCN(CCCCC2CCCCC2)C(=O)NC2CCCCC2)cc1)C(=O)O` [GW7647, reference compound] here?
Answer: The value was ~100%.

Question: Which results are given for `CN(CCOc1ccc(CC2SC(=O)NC2=O)cc1)c1ccccn1` (centres unmarked) [Rosi, rosiglitazone, reference compound]?
Answer: body weight gain (HFD mice; (S)-/(R)-VSP-77 5 mg/kg i.p., Rosi 10 mg/kg i.p.): observed; expression of Glut4 and Adiponectin in adipose tissue (mRNA) (HFD mice; Rosi 10 mg/kg i.p.): increased; expression of adipogenic genes PPARγ, AP2, CD36, LPL, C/EBPa and Fasn in adipose tissue (mRNA) (HFD mice; Rosi 10 mg/kg i.p.): robustly stimulated; % Area stained by Oil Red O (3T3-L1 cells [1]): 37%; expression of adipogenic genes PPARγ, aP2, CD36, LPL, C/EBPα and Fasn (mRNA) (3T3-L1 cells [2]): robustly induced; IC50 [3]: 18.8 µM
